# Experimental data from PubChem BioAssay (NCI).
#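 These data come from cells grown in 96-well plates and exposed to compound for 48 hours at five concentrations. TGI denotes the concentration required for complete inhibition of growth.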
# Tests used:
# Test in all cases: NCI anticancer screen, dose series, 48 h
# SF-268 CNS = tested on: SF-268 CNS
# PC-3 prostate = tested on: PC-3 prostate
# HOP-92 NSCLC = tested on: HOP-92 NSCLC
# CAKI-1 renal = tested on: CAKI-1 renal
# MOLT-4 leukemia = tested on: MOLT-4 leukemia
# UACC-257 melanoma = tested on: UACC-257 melanoma
# UO-31 renal = tested on: UO-31 renal
# A549 NSCLC = tested on: A549 NSCLC
# NCI-H460 lung = tested on: NCI-H460 lung
# OVCAR-4 ovarian = tested on: OVCAR-4 ovarian
# ACHN renal = tested on: ACHN renal
# SNB-19 CNS = tested on: SNB-19 CNS
# RXF 393 renal = tested on: RXF 393 renal
# T-47D breast = tested on: T-47D breast
# MDA-N = tested on: MDA-N
# SK-MEL-28 melanoma = tested on: SK-MEL-28 melanoma
# SF-539 CNS = tested on: SF-539 CNS
# SK-MEL-5 melanoma = tested on: SK-MEL-5 melanoma
# OVCAR-3 ovarian = tested on: OVCAR-3 ovarian
# HCT-15 colon = tested on: HCT-15 colon
# CCRF-CEM leukemia = tested on: CCRF-CEM leukemia
# K-562 leukemia = tested on: K-562 leukemia
# SW-620 colon = tested on: SW-620 colon
# SR leukemia = tested on: SR leukemia
# MALME-3M melanoma = tested on: MALME-3M melanoma
# HCC-2998 colon = tested on: HCC-2998 colon
# SNB-75 CNS = tested on: SNB-75 CNS
# HS 578T breast = tested on: HS 578T breast
# LOX IMVI melanoma = tested on: LOX IMVI melanoma
# HCT-116 colon = tested on: HCT-116 colon
# EKVX NSCLC = tested on: EKVX NSCLC
# HT29 colon = tested on: HT29 colon
# HL-60(TB) leukemia = tested on: HL-60(TB) leukemia
# MDA-MB-435 = tested on: MDA-MB-435
# 786-0 renal = tested on: 786-0 renal
# KM12 colon = tested on: KM12 colon
# A498 renal = tested on: A498 renal
# U251 CNS = tested on: U251 CNS
# M14 melanoma = tested on: M14 melanoma
# OVCAR-8 ovarian = tested on: OVCAR-8 ovarian
# SK-MEL-2 melanoma = tested on: SK-MEL-2 melanoma
# TK-10 renal = tested on: TK-10 renal
# IGROV1 ovarian = tested on: IGROV1 ovarian
# DU-145 prostate = tested on: DU-145 prostate
# SN12C renal = tested on: SN12C renal
# NCI-H23 lung = tested on: NCI-H23 lung
# RPMI-8226 leukemia = tested on: RPMI-8226 leukemia
# OVCAR-5 ovarian = tested on: OVCAR-5 ovarian
# SF-295 CNS = tested on: SF-295 CNS
# BT-549 breast = tested on: BT-549 breast
# NCI/ADR-RES ovarian = tested on: NCI/ADR-RES ovarian
# COLO 205 colon = tested on: COLO 205 colon
# UACC-62 melanoma = tested on: UACC-62 melanoma
# HOP-62 NSCLC = tested on: HOP-62 NSCLC
# MCF7 breast = tested on: MCF7 breast
# NCI-H522 lung = tested on: NCI-H522 lung
# SK-OV-3 ovarian = tested on: SK-OV-3 ovarian
# MDA-MB-231 breast = tested on: MDA-MB-231 breast
# NCI-H226 lung = tested on: NCI-H226 lung
structure (smiles),measurement,setting,value
CC(=O)Oc1ccc2c(c1)CC[C@@H]1C2[C@@H](O[N+](=O)[O-])C[C@@]2(C)C1CC[C@@H]2O[N+](=O)[O-] (some centres undefined),TGI,SF-268 CNS,29.7 µM
same,TGI,PC-3 prostate,22.9 µM
same,TGI,HOP-92 NSCLC,23.5 µM
same,TGI,CAKI-1 renal,33.6 µM
same,TGI,MOLT-4 leukemia,38.4 µM
same,TGI,UACC-257 melanoma,25.9 µM
same,TGI,UO-31 renal,26.1 µM
same,TGI,A549 NSCLC,29.1 µM
same,TGI,NCI-H460 lung,28.7 µM
same,TGI,OVCAR-4 ovarian,33.3 µM
same,TGI,ACHN renal,22 µM
same,TGI,SNB-19 CNS,32.4 µM
same,TGI,RXF 393 renal,23.7 µM
same,TGI,T-47D breast,26.8 µM
same,TGI,MDA-N,28.2 µM
same,TGI,SK-MEL-28 melanoma,28.7 µM
same,TGI,SF-539 CNS,35.9 µM
same,TGI,SK-MEL-5 melanoma,22.7 µM
same,TGI,OVCAR-3 ovarian,28.5 µM
same,TGI,HCT-15 colon,28.1 µM
same,TGI,CCRF-CEM leukemia,38.8 µM
same,TGI,K-562 leukemia,32.6 µM
same,TGI,SW-620 colon,33.1 µM
same,TGI,SR leukemia,27.7 µM
same,TGI,MALME-3M melanoma,28.8 µM
same,TGI,HCC-2998 colon,25.9 µM
same,TGI,SNB-75 CNS,28.7 µM
same,TGI,HS 578T breast,47.7 µM
same,TGI,LOX IMVI melanoma,28.9 µM
same,TGI,HCT-116 colon,23.2 µM
same,TGI,EKVX NSCLC,26.6 µM
same,TGI,HT29 colon,30.2 µM
same,TGI,HL-60(TB) leukemia,53.6 µM
same,TGI,MDA-MB-435,33.5 µM
same,TGI,786-0 renal,28.4 µM
same,TGI,KM12 colon,33.4 µM
same,TGI,A498 renal,32.8 µM
same,TGI,U251 CNS,27.5 µM
same,TGI,M14 melanoma,31.6 µM
same,TGI,OVCAR-8 ovarian,33.4 µM
same,TGI,SK-MEL-2 melanoma,31.5 µM
same,TGI,TK-10 renal,35.7 µM
same,TGI,IGROV1 ovarian,30.7 µM
same,TGI,DU-145 prostate,28.3 µM
same,TGI,SN12C renal,29.5 µM
same,TGI,NCI-H23 lung,29.2 µM
same,TGI,RPMI-8226 leukemia,31 µM
same,TGI,OVCAR-5 ovarian,33.7 µM
same,TGI,SF-295 CNS,23.7 µM
same,TGI,BT-549 breast,33.8 µM
same,TGI,NCI/ADR-RES ovarian,33.6 µM
same,TGI,COLO 205 colon,34.2 µM
same,TGI,UACC-62 melanoma,32.5 µM
same,TGI,HOP-62 NSCLC,15.5 µM
same,TGI,MCF7 breast,22.4 µM
same,TGI,NCI-H522 lung,25.4 µM
COc1cc(OC)c2c3c(OC)cc(OC)c4c(=O)c(O)c(C[C@@H](C)O)c(c5c(C[C@@H](C)O)c(O)c(=O)c1c25)c43,TGI,SF-268 CNS,70.4 µM
same,TGI,HOP-92 NSCLC,35.4 µM
same,TGI,CAKI-1 renal,53.2 µM
same,TGI,MOLT-4 leukemia,39.4 µM
same,TGI,UACC-257 melanoma,> 100 µM
same,TGI,UO-31 renal,> 100 µM
same,TGI,A549 NSCLC,> 100 µM
same,TGI,NCI-H460 lung,> 100 µM
same,TGI,OVCAR-4 ovarian,> 100 µM
same,TGI,ACHN renal,> 100 µM
same,TGI,SNB-19 CNS,> 100 µM
same,TGI,RXF 393 renal,73.1 µM
same,TGI,T-47D breast,44.5 µM
same,TGI,MDA-N,34 µM
same,TGI,SK-MEL-28 melanoma,42 µM
same,TGI,SF-539 CNS,93.5 µM
same,TGI,SK-OV-3 ovarian,> 100 µM
same,TGI,SK-MEL-5 melanoma,28.4 µM
same,TGI,OVCAR-3 ovarian,9.4 µM
same,TGI,HCT-15 colon,44.4 µM
same,TGI,SW-620 colon,35.6 µM
same,TGI,HCC-2998 colon,32 µM
same,TGI,MDA-MB-231 breast,25.3 µM
same,TGI,SNB-75 CNS,62.1 µM
same,TGI,LOX IMVI melanoma,35.3 µM
same,TGI,HCT-116 colon,30.1 µM
same,TGI,EKVX NSCLC,> 100 µM
same,TGI,HT29 colon,73 µM
same,TGI,HL-60(TB) leukemia,30.7 µM
same,TGI,MDA-MB-435,32.1 µM
same,TGI,786-0 renal,44.8 µM
same,TGI,KM12 colon,83.2 µM
same,TGI,A498 renal,71.8 µM
same,TGI,U251 CNS,67.9 µM
same,TGI,M14 melanoma,47 µM
same,TGI,OVCAR-8 ovarian,58.4 µM
same,TGI,SK-MEL-2 melanoma,68 µM
same,TGI,TK-10 renal,> 100 µM
same,TGI,IGROV1 ovarian,49.2 µM
same,TGI,DU-145 prostate,> 100 µM
same,TGI,SN12C renal,68.6 µM
same,TGI,NCI-H23 lung,40 µM
same,TGI,NCI-H226 lung,44.7 µM
same,TGI,OVCAR-5 ovarian,> 100 µM
same,TGI,SF-295 CNS,> 100 µM
same,TGI,BT-549 breast,46 µM
same,TGI,NCI/ADR-RES ovarian,> 100 µM
same,TGI,COLO 205 colon,16.7 µM
same,TGI,HOP-62 NSCLC,> 100 µM
same,TGI,MCF7 breast,48.6 µM
C[C@@H]1C(=O)C[C@H]2C(C)(C)CCC[C@]2(C)[C@@]1(O)CCc1ccoc1,TGI,SF-268 CNS,> 100 µM
same,TGI,PC-3 prostate,> 100 µM
same,TGI,HOP-92 NSCLC,> 100 µM
same,TGI,CAKI-1 renal,> 100 µM
same,TGI,MOLT-4 leukemia,> 100 µM
same,TGI,UACC-257 melanoma,> 100 µM
same,TGI,UO-31 renal,> 100 µM
same,TGI,A549 NSCLC,> 100 µM
same,TGI,NCI-H460 lung,> 100 µM
same,TGI,OVCAR-4 ovarian,> 100 µM
same,TGI,ACHN renal,> 100 µM
same,TGI,SNB-19 CNS,> 100 µM
same,TGI,RXF 393 renal,> 100 µM
same,TGI,T-47D breast,> 100 µM
same,TGI,MDA-N,> 100 µM
same,TGI,SK-MEL-28 melanoma,> 100 µM
same,TGI,SF-539 CNS,> 100 µM
same,TGI,SK-OV-3 ovarian,> 100 µM
same,TGI,SK-MEL-5 melanoma,> 100 µM
same,TGI,OVCAR-3 ovarian,> 100 µM
same,TGI,HCT-15 colon,> 100 µM
same,TGI,CCRF-CEM leukemia,> 100 µM
same,TGI,K-562 leukemia,> 100 µM
same,TGI,SW-620 colon,> 100 µM
same,TGI,SR leukemia,> 100 µM
same,TGI,MALME-3M melanoma,> 100 µM
same,TGI,HCC-2998 colon,> 100 µM
same,TGI,MDA-MB-231 breast,> 100 µM
same,TGI,SNB-75 CNS,> 100 µM
same,TGI,HS 578T breast,> 100 µM
same,TGI,LOX IMVI melanoma,> 100 µM
same,TGI,HCT-116 colon,> 100 µM
same,TGI,EKVX NSCLC,> 100 µM
same,TGI,HT29 colon,> 100 µM
same,TGI,HL-60(TB) leukemia,> 100 µM
same,TGI,MDA-MB-435,> 100 µM
same,TGI,786-0 renal,> 100 µM
same,TGI,KM12 colon,> 100 µM
same,TGI,A498 renal,> 100 µM
same,TGI,U251 CNS,> 100 µM
same,TGI,M14 melanoma,> 100 µM
same,TGI,OVCAR-8 ovarian,> 100 µM
same,TGI,SK-MEL-2 melanoma,> 100 µM
same,TGI,TK-10 renal,> 100 µM
same,TGI,IGROV1 ovarian,> 100 µM
same,TGI,DU-145 prostate,> 100 µM
same,TGI,SN12C renal,> 100 µM
same,TGI,NCI-H23 lung,> 100 µM
same,TGI,RPMI-8226 leukemia,> 100 µM
same,TGI,NCI-H226 lung,> 100 µM
same,TGI,OVCAR-5 ovarian,> 100 µM
same,TGI,SF-295 CNS,> 100 µM
same,TGI,BT-549 breast,> 100 µM
same,TGI,COLO 205 colon,> 100 µM
same,TGI,UACC-62 melanoma,> 100 µM
same,TGI,HOP-62 NSCLC,> 100 µM
same,TGI,MCF7 breast,> 100 µM
same,TGI,NCI-H522 lung,> 100 µM
